US7902226B2, “Dehalogeno-compounds” (Daiichi Pharmaceutical Co., Ltd., priority 2000, dated 2011)
Where two headings read alike, the source gives them in different places.

Assay: Blood concentration and organ concentration after oral administration (absorption test groups)
Assay type: in vivo
Details: fasting rats, 20 mg/kg; for Kp / Cmax / AUC(0-t) / half-life: male, Crj: CD IGS, rat; for Cmax / AUC(0-t) / half-life: serum; for AUC(0-t): read-out: Serum AUC0-4h; for half-life: read-out: Serum t1/2 (converted)
Procedure: For the compound of this invention described as Example 1, the blood concentration and organ concentration after oral administration were determined by the following methods. Measurements were also made by the same methods for Reference drug 1.
An administration solution was prepared by dissolving a tested compound to a concentration of 2 mg/ml (as free compound) in distilled water, and using a 2.5 ml disposable syringe or a metal oral probe, the solution was orally administered at a dose of 20 mg/kg to fasting rats (Crj: CD IGS; male; 7-week-old; Charles River Japan, Inc.).
The absorption test groups (4 rats per group; total of 6 groups) were killed by exsanguination while under ether anesthetization 0.25, 0.5, 1, 2, 4, or 6 hours after drug administration, and the blood, liver, kidneys, and lungs were sampled. With the blood, serum was sampled by centrifugation (3000 rpm×15 minutes, 4° C.) after coagulation. Tissues were homogenized after adding 3 to 5 ml of 0.1M phosphate buffer solution (pH 7.0) and the centrifugation supernatants (3000 rmpm×15 minutes, 4° C.) were collected.
Determination of drug concentrations in liquid samples were quantified by an agar well method bioassay using the B. subtilis ATCC6051 strain as the test organism. A test medium was prepared by inoculating a suspension containing 5×10^7 CFU/ml of spores of the test bacteria at a proportion of 1% into an nutrient agar (Eiken Kagaku) that was sterilized at 121° C. for 15 minutes and then cooled to approximately 50° C. After placing 10 ml each of this medium in a sterilized Petri dish and solidifying horizontally, four holes of 8 mm diameter were made to prepare a test plate medium. The Bioassay System TDA-1 (Dainippon Seiki) was used for preparation of the test plate media. For the measurements, the test samples (diluted with serum or phosphate buffer solution as necessary), serial dilutions of the drug solutions for calibration (two-fold serial dilutions prepared so that the inhibition ring diameter will be approximately 10 to 30 mm), and a reference drug solution (a drug solution of given concentration for correction of the error among plates; normally, a concentration of forming an inhibition ring of approximately […] is used) were prepared, and 50 μL of the test sample (or the drug solution for calibration) were placed in each of two of the four holes of each plate and 50 μL of the reference solution was placed in each of the other two holes. After addition of the sample, the plate medium was set still for 1 hour at 4° C. to perform preliminary dispersion and then culturing at 37° C. was performed for approximately 18 hours, and the inhibition ring diameters were measured using CA-400 (Dainippon Seiki). The concentrations of the test samples were measured using a calibration curve determined by second-order regression from the logarithmic values of the drug concentration of the calibration curve serial dilutions and the inhibition ring diameters.
For the tissue concentration (μg/ml), the concentration (μg/ml) in the homogenate supernatant was determined from the tissue weight (g) and the added phosphate buffer amount (ml) and using the following equation: [Tissue concentration]=[Homogenate concentration]×([Tissue weight]+[Buffer solution amount])/[Tissue weight]
For each drug, the pharmacokinetic parameters in rats were calculated based on mean concentration, by non-compartmental analysis, and using the pharmacodynamics analysis software, PSAG-CP (Asmedica).

[1] = kidney/serum, kidney, read-out: AUC0-4h tissue/serum ratio Kidney
[2] = liver/serum, liver, read-out: AUC0-4h tissue/serum ratio Liver
[3] = lung/serum, lung, read-out: AUC0-4h tissue/serum ratio Lung

Question: What does the source list for `Cc1c(N2CC[C@@H](C3(N)CC3)C2)ccc2c(=O)c(C(=O)O)cn([C@@H]3C[C@@H]3F)c12` [Example 1, 7-[3-(R)-(1-aminocyclopropyl)pyrrolidin-1-yl]-1-[2-(S)-fluoro-1-(R)-cyclopropyl]-1,4-dihydro-8-methyl-4-oxoquinoline-3-carboxylic acid]?
Answer: Tissue AUC0-4h Kidney (kidney): 29.0; Tissue Cmax Kidney (kidney): 14.2 µg/g; Tissue AUC0-4h Liver (liver): 34.5; Tissue Cmax Liver (liver): 27.4 µg/g; Tissue AUC0-4h Lung (lung): 10.0; Tissue Cmax Lung (lung): 3.8 µg/g; Kp [1]: 29; Kp [2]: 34.5; Kp [3]: 10; Cmax: 1700 ng/mL; AUC(0-t): 3100 ng·h/mL; half-life: 72 min

Question: What does the source list for `Cc1c(N2CC[C@@H](C3(N)CC3)C2)c(F)cc2c(=O)c(C(=O)O)cn([C@@H]3C[C@@H]3F)c12` [Reference drug 1, 7-[3-(R)-(1-aminocyclopropyl)pyrrolidin-1-yl]-6-fluoro-1-[2-(S)-fluoro-1-(R)-cyclopropyl]-8-methyl-1,4-dihydro-4-oxoquinoline-3-carboxylic acid, reference compound]?
Answer: Tissue AUC0-4h Kidney (kidney): 7.1; Tissue Cmax Kidney (kidney): 5.0 µg/g; Tissue AUC0-4h Liver (liver): 10.4; Tissue Cmax Liver (liver): 11.6 µg/g; Tissue AUC0-4h Lung (lung): 5.3; Tissue Cmax Lung (lung): 3.0 µg/g; Kp [1]: 7.1; Kp [2]: 10.4; Kp [3]: 5.3; Cmax: 1600 ng/mL; AUC(0-t): 2300 ng·h/mL; half-life: 60 min
